Experimental data: US11932632B1, “N'-(2-(5-phenyl-1,3,4-oxadiazol-2-ylthio)acetoxy)benzo[d][1,3]dioxole-5 carboximidamide as an antimicrobial compound” (KING FAISAL UNIVERSITY, priority 2023, dated 2024)

Tests used:
Format in all cases: cell-based
Bacillus Cereus = test: Agar plate disc-diffusion, antibacterial activity by inhibition zone; settings: nutrient agar, 37° C., 48 h, DMSO zone subtracted
Experimental: (§1) The agar plate disc-diffusion method was applied. […] The discs were then placed onto the surface of agar plates (nutrient agar for bacteria and Sabouraud's dextrose agar for fungi) seeded with the test organism. Each plate contained 15 mL of the agar medium, previously seeded with 0.2 mL of the broth culture of each organism pregrown for 18 hours. The plates were incubated at 37° C. for 48 h, and 72 h for fungi. The inhibition zones were measured in mm. Discs impregnated with DMSO were used as a control, and its inhibition zone was subtracted from the tested compound actual inhibition zone.
(§2) The results of the antimicrobial testing can be observed in Tables 1 and 2, below, using ciprofloxacin as a reference.

Escherichia coli = test: as above; settings: nutrient agar, 37° C., 48 h, DMSO zone subtracted
Experimental: as §1, §2

Pseudomonas aeruginosa = test: as above; settings: nutrient agar, 37° C., 48 h, DMSO zone subtracted
Experimental: as §1, §2

Staphylococcus aureus = test: as above; settings: nutrient agar, 37° C., 48 h, DMSO zone subtracted
Experimental: as §1, §2

Aspergillus flavus = test: Agar plate disc-diffusion, antifungal activity by inhibition zone; settings: Sabouraud's dextrose agar, 37° C., 72 h, DMSO zone subtracted
Experimental: as §1, §2

[1] = system: Chrysosporium keratinophilum; test: as above; settings: Sabouraud's dextrose agar, 37° C., 72 h, DMSO zone subtracted
Experimental: as §1, §2

[2] = A = concentration of comp. = 10,000 μL
[3] = B = concentration of comp. = 30.000 μL
[4] = C = concentration of comp. = 50,000 μL

SMILES: N/C(=N\OC(=O)CSc1nnc(-c2ccccc2)o1)c1ccc2c(c1)OCO2 [Compound 3, N′-(2-(5-phenyl-1,3,4-oxadiazol-2-ylthio)acetoxy)benzo[d][1,3]dioxole-5-carboximidamide]
- inhibition zone, Bacillus Cereus, A (Bacillus Cereus; [2]): 25 mm
- inhibition zone, Bacillus Cereus, B (Bacillus Cereus; [3]): 29 mm
- inhibition zone, Bacillus Cereus, C (Bacillus Cereus; [4]): 39 mm
- inhibition zone, Escherichia coli, A (Escherichia coli; [2]): 29 mm
- inhibition zone, Escherichia coli, B (Escherichia coli; [3]): 33 mm
- inhibition zone, Escherichia coli, C (Escherichia coli; [4]): 49 mm
- inhibition zone, Pseudomonas aeruginosa, A (Pseudomonas aeruginosa; [2]): 24 mm
- inhibition zone, Pseudomonas aeruginosa, B (Pseudomonas aeruginosa; [3]): 27 mm
- inhibition zone, Pseudomonas aeruginosa, C (Pseudomonas aeruginosa; [4]): 39 mm
- inhibition zone, Staphylococcus aureus, A (Staphylococcus aureus; [2]): 18 mm
- inhibition zone, Staphylococcus aureus, B (Staphylococcus aureus; [3]): 21 mm
- inhibition zone, Staphylococcus aureus, C (Staphylococcus aureus; [4]): 37 mm
- inhibition zone, Aspergillus flavus, A (Aspergillus flavus; [2]): 21 mm
- inhibition zone, Aspergillus flavus, B (Aspergillus flavus; [3]): 25 mm
- inhibition zone, Aspergillus flavus, C (Aspergillus flavus; [4]): 36 mm
- inhibition zone, Chrysosporium keratinophilum, A [1, 2]: 25 mm
- inhibition zone, Chrysosporium keratinophilum, B [1, 3]: 27 mm
- inhibition zone, Chrysosporium keratinophilum, C [1, 4]: 42 mm
